Patent US12357711B2, “PSMA binding dual mode radiotracer and therapeutic” (Technische Universität München, priority 2019, dated 2025)

System: SCID mice
Experiment: Preclinical dosimetry from biodistribution in mice, extrapolated to 70-kg Standard Adult (OLINDA/EXM 1.0)
Assay type: in vivo
Details: 1.0 h bladder voiding interval
Description: 3-5 mice were injected per timepoint with a mean 25.6±3.6 MBq of 18F-rhPSMA-7 and 28.5±4.8 MBq of 18F-rhPSMA-7.3, respectively. Mice, severe combined immunodeficiency (SCID) were used for the experiments.
Mice were sacrificed at the following timepoints: • ^18F-rhPSMA-7: 10, 20, 40, 60, 120 and 180 minutes after administration. • ^18F-rhPSMA-7.3: 10, 60, 120, 180 and 300 minutes after administration.
Urine, blood, heart, lung, spleen, pancreas, liver, stomach (emptied), small intestine (emptied), large intestine (emptied), kidneys, bladder, testis, fat, muscle (partial, femoral), femur, tail and brain. Urine was collected with a pipette in the CO2 gas chamber. In case of missing urination in the chamber the bladder was aspirated with an insulin syringe. Blood was withdrawn instantly after sacrifice with an insulin syringe from the heart. All other tissues and organs were dissected and transferred directly in plastic containers.
The counting rates of measurement samples were automatically corrected for decay. The radioactivity distribution ratios (unit: percentage of the injected dose (% ID) in the measurement samples were determined using the equation below. The sum of the counting rates from all measurement samples obtained from one mouse was designated as the counting rate for administrated radioactivity.
The radioactivity distribution ratio per unit weight of the measurement sample (unit: % ID/g) excluding urine and feces samples was determined by using the equation below. The weight of the measurement sample was determined by subtraction of the empty measurement container from the container including the sample.
For consistency of statistical calculations for each radiotracer the same number of time-points for ^18F-rhPSMA-7 and ^18F-rhPSMA-7.3 was used. Therefore, for ^18F-rhPSMA-7 the 10 min and 20 min time points were combined creating a 15 min endpoint.
The time-integral of activity for the accumulation in the significant source organs (AUCs) were generated both with numerical integration and physical decay according to J Juan et al., Journal of Pharmaceutical Sciences, 1993, 82:762-763.
In brief, to calculate a human dosimetry from the biodistribution in the mice, an extrapolation was necessary to account for the differences between the animals and humans. Normal-organ radiation doses were estimated for the 70-kg Standard Adult anatomic model using time-depending organ activity concentrations (in percent of the injected dose per gram, % ID/g) and total-body activities measured in the biodistribution studies in mice.
Tissue activity concentrations in mice were converted to tissue fractional activities in the 70-kg Standard Adult using the relative fractional organ masses in the Standard Adult and the “standard” 25-gramm mouse. Time-dependent total-body activity was fit to an exponential function and the difference between the injected activity and the total-body activity was assumed to be excreted to the urine because activity concentrations in the liver and GI tracer were low at all time points studied.
Organ residence time was calculated by numerical integration using the trapezoidal rule and the rest-of-body ^18F residence times was calculated as the difference between the total-body residence time and the sum of the organ and urine residence times. The bladder contents residence time was estimated using the dynamic voiding model in the OLINDA/EXM 1.0 dosimetry software. Finally, the Standard Adult mean organ dose equivalents (in mSv/MBq) and effective dose (also in mSv/MBq) were then calculated using OLIN DA/EXM 1.0.
Final calculation of radiation absorbed dose and dosimetry from biodistribution in mice: The tissues or organs in which a significant accumulation of radioactivity occurs (i.e., source organ) were kidney, spleen, lung, liver and heart. With respect to activity accumulation and clearance, a rapid clearance from blood and clearance to urine but relatively slow build-up in kidney was found.

Substance: [^19F][^natGa]D/L-Dap-R/S-DOTAGA-rhPSMA7 [rhPSMA7-rac]
- Adrenals ED Cont.: 3.79E−05 mSv/MBq
- Adrenals EDE Cont.: 0.00E000 mSv/MBq
- Adrenals dose Alpha: 0.00E000 mSv/MBq
- Adrenals dose Beta: 1.95E−03 mSv/MBq
- Adrenals dose Photon: 5.64E−03 mSv/MBq
- Adrenals dose Total: 7.59E−03 mSv/MBq
- Brain ED Cont.: 2.24E−05 mSv/MBq
- Brain EDE Cont.: 0.00E000 mSv/MBq
- Brain dose Alpha: 0.00E000 mSv/MBq
- Brain dose Beta: 1.95E−03 mSv/MBq
- Brain dose Photon: 2.54E−03 mSv/MBq
- Brain dose Total: 4.49E−03 mSv/MBq
- Breasts ED Cont.: 2.10E−04 mSv/MBq
- Breasts EDE Cont.: 6.30E−04 mSv/MBq
- Breasts dose Alpha: 0.00E000 mSv/MBq
- Breasts dose Beta: 1.95E−03 mSv/MBq
- Breasts dose Photon: 2.25E−03 mSv/MBq
- Breasts dose Total: 4.20E−03 mSv/MBq
- Gallbladder Wall ED Cont.: 0.00E000 mSv/MBq
- Gallbladder Wall EDE Cont.: 0.00E000 mSv/MBq
- Gallbladder Wall dose Alpha: 0.00E000 mSv/MBq
- Gallbladder Wall dose Beta: 1.95E−03 mSv/MBq
- Gallbladder Wall dose Photon: 4.96E−03 mSv/MBq
- Gallbladder Wall dose Total: 6.91E−03 mSv/MBq
- Heart Wall ED Cont.: 0.00E000 mSv/MBq
- Heart Wall EDE Cont.: 0.00E000 mSv/MBq
- Heart Wall dose Alpha: 0.00E000 mSv/MBq
- Heart Wall dose Beta: 8.82E−04 mSv/MBq
- Heart Wall dose Photon: 3.48E−03 mSv/MBq
- Heart Wall dose Total: 4.36E−03 mSv/MBq
- Kidneys ED Cont.: 3.23E−04 mSv/MBq
- Kidneys EDE Cont.: 3.88E−03 mSv/MBq
- Kidneys dose Alpha: 0.00E000 mSv/MBq
- Kidneys dose Beta: 4.70E−02 mSv/MBq
- Kidneys dose Photon: 1.76E−02 mSv/MBq
- Kidneys dose Total: 6.47E−02 mSv/MBq
- LLI Wall ED Cont.: 1.10E−03 mSv/MBq
- LLI Wall EDE Cont.: 5.52E−04 mSv/MBq
- LLI Wall dose Alpha: 0.00E000 mSv/MBq
- LLI Wall dose Beta: 1.95E−03 mSv/MBq
- LLI Wall dose Photon: 7.25E−03 mSv/MBq
- LLI Wall dose Total: 9.20E−03 mSv/MBq
- Liver ED Cont.: 2.01E−04 mSv/MBq
- Liver EDE Cont.: 0.00E000 mSv/MBq
- Liver dose Alpha: 0.00E000 mSv/MBq
- Liver dose Beta: 6.35E−04 mSv/MBq
- Liver dose Photon: 3.39E−03 mSv/MBq
- Liver dose Total: 4.02E−03 mSv/MBq
- Lungs ED Cont.: 5.11E−04 mSv/MBq
- Lungs EDE Cont.: 5.11E−04 mSv/MBq
- Lungs dose Alpha: 0.00E000 mSv/MBq
- Lungs dose Beta: 1.25E−03 mSv/MBq
- Lungs dose Photon: 3.01E−03 mSv/MBq
- Lungs dose Total: 4.26E−03 mSv/MBq
- Muscle ED Cont.: 2.98E−05 mSv/MBq
- Muscle EDE Cont.: 0.00E000 mSv/MBq
- Muscle dose Alpha: 0.00E000 mSv/MBq
- Muscle dose Beta: 1.95E−03 mSv/MBq
- Muscle dose Photon: 4.01E−03 mSv/MBq
- Muscle dose Total: 5.96E−03 mSv/MBq
- Osteogenic Cells ED Cont.: 8.27E−05 mSv/MBq
- Osteogenic Cells EDE Cont.: 2.48E−04 mSv/MBq
- Osteogenic Cells dose Alpha: 0.00E000 mSv/MBq
- Osteogenic Cells dose Beta: 4.18E−03 mSv/MBq
- Osteogenic Cells dose Photon: 4.09E−03 mSv/MBq
- Osteogenic Cells dose Total: 8.27E−03 mSv/MBq
- Ovaries ED Cont.: 1.83E−03 mSv/MBq
- Ovaries EDE Cont.: 2.29E−03 mSv/MBq
- Ovaries dose Alpha: 0.00E000 mSv/MBq
- Ovaries dose Beta: 1.95E−03 mSv/MBq
- Ovaries dose Photon: 7.21E−03 mSv/MBq
- Ovaries dose Total: 9.16E−03 mSv/MBq
- Pancreas ED Cont.: 3.90E−05 mSv/MBq
- Pancreas EDE Cont.: 0.00E000 mSv/MBq
- Pancreas dose Alpha: 0.00E000 mSv/MBq
- Pancreas dose Beta: 1.95E−03 mSv/MBq
- Pancreas dose Photon: 5.86E−03 mSv/MBq
- Pancreas dose Total: 7.80E−03 mSv/MBq
- Red Marrow ED Cont.: 6.82E−04 mSv/MBq
- Red Marrow EDE Cont.: 6.82E−04 mSv/MBq
- Red Marrow dose Alpha: 0.00E000 mSv/MBq
- Red Marrow dose Beta: 1.39E−03 mSv/MBq
- Red Marrow dose Photon: 4.29E−03 mSv/MBq
- Red Marrow dose Total: 5.68E−03 mSv/MBq
- Skin ED Cont.: 4.32E−05 mSv/MBq
- Skin EDE Cont.: 0.00E000 mSv/MBq
- Skin dose Alpha: 0.00E000 mSv/MBq
- Skin dose Beta: 1.95E−03 mSv/MBq
- Skin dose Photon: 2.38E−03 mSv/MBq
- Skin dose Total: 4.32E−03 mSv/MBq
- Small Intestine ED Cont.: 3.87E−05 mSv/MBq
- Small Intestine EDE Cont.: 0.00E000 mSv/MBq
- Small Intestine dose Alpha: 0.00E000 mSv/MBq
- Small Intestine dose Beta: 1.95E−03 mSv/MBq
- Small Intestine dose Photon: 5.79E−03 mSv/MBq
- Small Intestine dose Total: 7.73E−03 mSv/MBq
- Spleen ED Cont.: 1.29E−04 mSv/MBq
- Spleen EDE Cont.: 1.55E−03 mSv/MBq
- Spleen dose Alpha: 0.00E000 mSv/MBq
- Spleen dose Beta: 1.59E−02 mSv/MBq
- Spleen dose Photon: 9.90E−03 mSv/MBq
- Spleen dose Total: 2.58E−02 mSv/MBq
- Stomach Wall ED Cont.: 7.98E−04 mSv/MBq
- Stomach Wall EDE Cont.: 0.00E000 mSv/MBq
- Stomach Wall dose Alpha: 0.00E000 mSv/MBq
- Stomach Wall dose Beta: 1.95E−03 mSv/MBq
- Stomach Wall dose Photon: 4.70E−03 mSv/MBq
- Stomach Wall dose Total: 6.65E−03 mSv/MBq
- Testes ED Cont.: 0.00E000 mSv/MBq
- Testes EDE Cont.: 0.00E000 mSv/MBq
- Testes dose Alpha: 0.00E000 mSv/MBq
- Testes dose Beta: 1.95E−03 mSv/MBq
- Testes dose Photon: 5.09E−03 mSv/MBq
- Testes dose Total: 7.03E−03 mSv/MBq
- Thymus ED Cont.: 2.57E−05 mSv/MBq
- Thymus EDE Cont.: 0.00E000 mSv/MBq
- Thymus dose Alpha: 0.00E000 mSv/MBq
- Thymus dose Beta: 1.95E−03 mSv/MBq
- Thymus dose Photon: 3.20E−03 mSv/MBq
- Thymus dose Total: 5.15E−03 mSv/MBq
- Thyroid ED Cont.: 2.59E−04 mSv/MBq
- Thyroid EDE Cont.: 1.55E−04 mSv/MBq
- Thyroid dose Alpha: 0.00E000 mSv/MBq
- Thyroid dose Beta: 1.95E−03 mSv/MBq
- Thyroid dose Photon: 3.23E−03 mSv/MBq
- Thyroid dose Total: 5.17E−03 mSv/MBq
- Total Body ED Cont.: 0.00E000 mSv/MBq
- Total Body EDE Cont.: 0.00E000 mSv/MBq
- Total Body dose Alpha: 0.00E000 mSv/MBq
- Total Body dose Beta: 2.27E−03 mSv/MBq
- Total Body dose Photon: 3.93E−03 mSv/MBq
- Total Body dose Total: 6.19E−03 mSv/MBq
- ULI Wall ED Cont.: 3.64E−05 mSv/MBq
- ULI Wall EDE Cont.: 0.00E000 mSv/MBq
- ULI Wall dose Alpha: 0.00E000 mSv/MBq
- ULI Wall dose Beta: 1.95E−03 mSv/MBq
- ULI Wall dose Photon: 5.33E−03 mSv/MBq
- ULI Wall dose Total: 7.27E−03 mSv/MBq
- Urinary Bladder Wall ED Cont.: 5.76E−03 mSv/MBq
- Urinary Bladder Wall EDE Cont.: 6.92E−03 mSv/MBq
- Urinary Bladder Wall dose Alpha: 0.00E000 mSv/MBq
- Urinary Bladder Wall dose Beta: 7.87E−02 mSv/MBq
- Urinary Bladder Wall dose Photon: 3.66E−02 mSv/MBq
- Urinary Bladder Wall dose Total: 1.15 E−01 mSv/MBq
- Uterus ED Cont.: 6.56E−05 mSv/MBq
- Uterus EDE Cont.: 7.87E−04 mSv/MBq
- Uterus dose Alpha: 0.00E000 mSv/MBq
- Uterus dose Beta: 1.95E−03 mSv/MBq
- Uterus dose Photon: 1.12E−02 mSv/MBq
- Uterus dose Total: 1.31E−02 mSv/MBq
